Reference: PubChem BioAssay AID330 (DTP/NCI, 2004)
“And” between values parts separate entries of the source, which are not always exact repeats. Equal entries are not always repeated. Toxic doses and inconclusive results are not listed. How the source made its calls: active means survival T/C of 150% or more; inactive means T/C below 125% in these data.

Tested on: P388 leukemia ip, CD2F1 mice, survival T/C
Assay: NCI In Vivo Anticancer Drug Screen. Data for tumor model P388 Leukemia (intraperitoneal) in CD2F1 (CDF1) mice
Conditions: endpoint: median survival time, higher = longer survival
Method in brief: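 Mice carrying the transplanted tumor received test compound or vehicle. Survival was recorded in each group, and the value is the treated-group measurement divided by that of the vehicle-treated control group.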

[1] = dose: 50.0 mg/kg/injection, schedule: Q01DX009 (ip), vehicle: Klucel (hydroxypropylcellulose) (HPC)
[2] = dose: 100.0 mg/kg/injection, schedule: Q01DX009 (ip), vehicle: Klucel (hydroxypropylcellulose) (HPC)
[3] = dose: 50.0 mg/kg/injection, schedule: Q01DX009 (ip), vehicle: saline with Tween-80
[4] = dose: 100.0 mg/kg/injection, schedule: Q01DX009 (ip), vehicle: saline with Tween-80
[5] = dose: 200.0 mg/kg/injection, schedule: Q01DX009 (ip), vehicle: saline with Tween-80

Measured: T/C

CC[C@]1(O)C[C@H]2CN(CCc3c([nH]c4ccccc34)[C@@](C(=O)OC)(c3cc4c(cc3OC)N(C=O)[C@H]3[C@@](O)(C(=O)OC)[C@H](OC(C)=O)[C@]5(CC)C=CCN6CC[C@]43[C@@H]65)C2)C1
active: dose: 0.06 mg/kg/injection, schedule: Q01DX010 (ip), vehicle: saline 168 % of control | dose: 0.08 mg/kg/injection, schedule: Q01DX009 (ip), vehicle: saline 172 % of control | dose: 0.12 mg/kg/injection, schedule: Q01DX009 (ip), vehicle: water 166 % of control | dose: 0.12 mg/kg/injection, schedule: Q04DX003 (ip), vehicle: saline 163 % of control | dose: 0.13 mg/kg/injection, schedule: Q01DX005 (ip), vehicle: saline 161 % of control and 168 % of control | dose: 0.13 mg/kg/injection, schedule: Q01DX010 (ip), vehicle: saline 181 % of control | dose: 0.15 mg/kg/injection, schedule: Q01DX009 (ip), vehicle: saline 190 % of control | dose: 0.2 mg/kg/injection, schedule: Q01DX009 (ip), vehicle: saline 169 % of control | dose: 0.2 mg/kg/injection, schedule: Q04DX003 (ip), vehicle: water 196 % of control | dose: 0.25 mg/kg/injection, schedule: Q01DX005 (ip), vehicle: saline 180 % of control and 184 % of control | dose: 0.25 mg/kg/injection, schedule: Q01DX010 (ip), vehicle: saline 177 % of control | dose: 0.3 mg/kg/injection, schedule: Q04DX002 (ip), vehicle: saline 150 % of control | dose: 0.36 mg/kg/injection, schedule: Q01DX009 (ip), vehicle: water 150 % of control | dose: 0.36 mg/kg/injection, schedule: Q04DX003 (ip), vehicle: saline 167 % of control and 169 % of control and 174 % of control | dose: 0.39 mg/kg/injection, schedule: Q04DX002 (ip), vehicle: saline 154 % of control and 164 % of control | dose: 0.4 mg/kg/injection, schedule: Q01DX005 (ip), vehicle: saline 171 % of control | dose: 0.43 mg/kg/injection, schedule: Q04DX002 (ip), vehicle: saline 153 % of control and 176 % of control | dose: 0.44 mg/kg/injection, schedule: Q04DX002 (ip), vehicle: saline 162 % of control | dose: 0.5 mg/kg/injection, schedule: Q04DX004 (ip), vehicle: saline 169 % of control | dose: 0.53 mg/kg/injection, schedule: Q04DX003 (ip), vehicle: saline 179 % of control and 182 % of control | dose: 0.6 mg/kg/injection, schedule: Q01DX009 (ip), vehicle: saline 200 % of control | dose: 0.6 mg/kg/injection, schedule: Q04DX003 (ip), vehicle: saline 198 % of control | dose: 0.65 mg/kg/injection, schedule: Q04DX002 (ip), vehicle: saline 161 % of control and 168 % of control | dose: 0.67 mg/kg/injection, schedule: Q04DX002 (ip), vehicle: saline 174 % of control | dose: 0.72 mg/kg/injection, schedule: Q04DX002 (ip), vehicle: saline 158 % of control and 192 % of control | dose: 0.8 mg/kg/injection, schedule: Q01DX005 (ip), vehicle: saline 186 % of control | dose: 0.8 mg/kg/injection, schedule: Q04DX003 (ip), vehicle: water 191 % of control | dose: 0.8 mg/kg/injection, schedule: Q04DX003 (iv), vehicle: saline 161 % of control and 168 % of control | dose: 1.0 mg/kg/injection, schedule: Q01DX003 (ip), vehicle: saline 163 % of control | dose: 1.0 mg/kg/injection, schedule: Q04DX002 (ip), vehicle: saline 184 % of control | dose: 1.0 mg/kg/injection, schedule: Q04DX003 (iv), vehicle: saline 182 % of control | dose: 1.08 mg/kg/injection, schedule: Q04DX002 (ip), vehicle: saline 167 % of control and 177 % of control | dose: 1.2 mg/kg/injection, schedule: Q04DX002 (ip), vehicle: saline 169 % of control and 179 % of control | dose: 1.2 mg/kg/injection, schedule: Q04DX003 (iv), vehicle: saline 173 % of control and 177 % of control | dose: 1.3 mg/kg/injection, schedule: Q01DX001 (ip), vehicle: saline 156 % of control | dose: 1.5 mg/kg/injection, schedule: Q04DX002 (ip), vehicle: saline 161 % of control | dose: 1.8 mg/kg/injection, schedule: Q04DX002 (ip), vehicle: saline 191 % of control and 200 % of control | dose: 1.8 mg/kg/injection, schedule: Q04DX003 (iv), vehicle: saline 167 % of control and 182 % of control | dose: 2.0 mg/kg/injection, schedule: Q01DX001 (ip), vehicle: Klucel (hydroxypropylcellulose) (HPC) 155 % of control and 162 % of control | dose: 2.0 mg/kg/injection, schedule: Q01DX001 (ip), vehicle: saline with Tween-80 157 % of control | dose: 2.0 mg/kg/injection, schedule: Q01DX001 (iv), vehicle: saline 154 % of control | dose: 2.0 mg/kg/injection, schedule: Q04DX002 (ip), vehicle: saline 182 % of control | dose: 2.7 mg/kg/injection, schedule: Q04DX003 (ip), vehicle: saline 179 % of control | dose: 3.0 mg/kg/injection, schedule: Q01DX001 (ip), vehicle: saline 170 % of control and 192 % of control | dose: 4.0 mg/kg/injection, schedule: Q01DX001 (ip), vehicle: Klucel (hydroxypropylcellulose) (HPC) 167 % of control and 174 % of control | dose: 4.0 mg/kg/injection, schedule: Q01DX001 (ip), vehicle: saline with Tween-80 168 % of control | dose: 8.0 mg/kg/injection, schedule: Q01DX001 (ip), vehicle: Klucel (hydroxypropylcellulose) (HPC) 194 % of control
inactive: dose: 0.08 mg/kg/injection, schedule: Q01DX009 (ip), vehicle: water 115 % of control | dose: 0.18 mg/kg/injection, schedule: Q01DX005 (ip), vehicle: saline 110 % of control and 123 % of control | dose: 0.22 mg/kg/injection, schedule: Q01DX009 (ip), vehicle: saline 114 % of control | dose: 0.22 mg/kg/injection, schedule: Q01DX009 (ip), vehicle: water 113 % of control | dose: 0.25 mg/kg/injection, schedule: Q01DX001 (ip), vehicle: saline with Tween-80 115 % of control | dose: 0.25 mg/kg/injection, schedule: Q01DX001 (iv), vehicle: saline 122 % of control | dose: 0.25 mg/kg/injection, schedule: Q04DX003 (iv), vehicle: saline 120 % of control | dose: 0.3 mg/kg/injection, schedule: Q01DX005 (ip), vehicle: saline 112 % of control | dose: 0.33 mg/kg/injection, schedule: Q01DX009 (ip), vehicle: saline 113 % of control | dose: 0.36 mg/kg/injection, schedule: Q04DX003 (iv), vehicle: saline 119 % of control and 123 % of control | dose: 0.37 mg/kg/injection, schedule: Q04DX002 (ip), vehicle: saline 117 % of control | dose: 0.4 mg/kg/injection, schedule: Q04DX003 (ip), vehicle: saline 113 % of control | dose: 0.5 mg/kg/injection, schedule: Q04DX003 (oral), vehicle: water 100 % of control | dose: 1.0 mg/kg/injection, schedule: Q04DX003 (oral), vehicle: water 106 % of control | dose: 2.0 mg/kg/injection, schedule: Q04DX003 (oral), vehicle: water 102 % of control | dose: 2.7 mg/kg/injection, schedule: Q04DX003 (iv), vehicle: saline 100 % of control | dose: 3.0 mg/kg/injection, schedule: Q04DX002 (ip), vehicle: saline 99 % of control | dose: 4.0 mg/kg/injection, schedule: Q01DX001 (iv), vehicle: saline 121 % of control | dose: 4.0 mg/kg/injection, schedule: Q04DX003 (oral), vehicle: water 110 % of control | dose: 4.5 mg/kg/injection, schedule: Q01DX001 (ip), vehicle: saline 104 % of control

COC1=CC(=Nc2ccc(N(CCCl)CCCl)cc2)C=CC1=O
active: dose: 25.0 mg/kg/injection, schedule: Q01DX009 (ip), vehicle: Klucel (hydroxypropylcellulose) (HPC) 159 % of control | [1] 151 % of control and 154 % of control | [2] 159 % of control and 174 % of control

Cc1n[nH]c(=S)n1N
inactive: [1] 94 % of control | [2] 93 % of control | dose: 200.0 mg/kg/injection, schedule: Q01DX009 (ip), vehicle: Klucel (hydroxypropylcellulose) (HPC) 95 % of control | dose: 400.0 mg/kg/injection, schedule: Q01DX009 (ip), vehicle: Klucel (hydroxypropylcellulose) (HPC) 88 % of control

NC(=O)c1ccccc1NC(=O)c1ccccc1C(=O)O
inactive: [3] 100 % of control and 101 % of control | [4] 99 % of control and 103 % of control | [5] 101 % of control and 103 % of control | dose: 400.0 mg/kg/injection, schedule: Q01DX009 (ip), vehicle: saline with Tween-80 100 % of control and 101 % of control

OCC1OC(OC2C(CO)OC(S)C(O)C2O)C(O)C(O)C1O (centres undefined)
inactive: [3] 98 % of control | [4] 92 % of control | [5] 92 % of control

OCC1CCCCC1(O)c1ccccc1 (centres undefined)
inactive: dose: 50.0 mg/kg/injection, schedule: Q01DX001 (ip), vehicle: Klucel (hydroxypropylcellulose) (HPC) 90 % of control | dose: 100.0 mg/kg/injection, schedule: Q01DX001 (ip), vehicle: Klucel (hydroxypropylcellulose) (HPC) 90 % of control | dose: 200.0 mg/kg/injection, schedule: Q01DX001 (ip), vehicle: Klucel (hydroxypropylcellulose) (HPC) 90 % of control
